The assay deals with T1, Bos d 5 (bovine beta-lactoglobulin) (Bos taurus, UniProt P02754).
T1 construct: gene LGB; commercially available bovine beta-lactoglobulin (L0130, Sigma); globular protein of 162 amino acid residues
Description: intrinsic tryptophan fluorescence quenching (pH […] °C), supported by ANS displacement assay. The assay is classed as binding.

SMILES strings stand for the structures.

T1 sequence (P02754 17-178): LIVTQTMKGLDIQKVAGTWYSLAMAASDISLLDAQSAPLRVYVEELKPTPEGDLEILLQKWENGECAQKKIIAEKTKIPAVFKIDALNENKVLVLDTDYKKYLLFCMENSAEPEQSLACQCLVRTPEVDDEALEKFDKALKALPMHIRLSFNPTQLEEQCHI

In turn, `CC1=C(/C=C/C(C)=C/C=C/C(C)=C/C(=O)O)C(C)(C)CCC1` [RA, all trans-retinoic acid] showed a Kd of 6.1 µM.

A word on the Kd: it is a measure of binding affinity in units of concentration.

The record behind these values is publication PMC5785490, “Retinoic acid prevents immunogenicity of milk lipocalin Bos d 5 through binding to its immunodominant T-cell epitope” (Scientific Reports, 2018).
